Converted amounts (≈) assume the structure as drawn. Like-named read-outs stand apart in the source and are kept apart here.
How the values were obtained:
[1] = molecular target: T1, yeast α-glucosidase (Saccharomyces cerevisiae, UniProt P53341); experiment: α-Glucosidase inhibitory activity; format: biochemical, Saccharomyces cervisiae
T1 construct: purchased Sigma-Aldrich
Protocol: All thin layer chromatography analyses were performed at room temperature using pre-coated plates (MERCK, silica gel 60 F254 0.2 thickness). Detection of spots was done by viewing under UV light (254 and 366 nm). Open column chromatography was carried out using silica gel (230-400 mesh) and Sephadex LH-20. Nuclear magnetic resonance (NMR) data were obtained using Bruker spectrometers (400 and 500 MHz). Chemical shifts are expressed in parts per million (ppm).
α-Glucosidase inhibitory activity was determined as previously described by Tao et al. with modifications as detailed by Rengasamy et al.. Briefly, yeast α-glucosidase (0.1 Unit/mL) was dissolved in 0.1 M potassium phosphate buffer (pH 6.8), this was used as the enzyme solution. The control experiment contained the same reaction mixture, but the sample solution was replaced with the same volume of phosphate buffer. […] The determinations were carried out in triplicate. The percentage inhibition (%) was calculated using the following equation: % Inhibition = (Acontrol − Asample)/Acontrol × 100(1) where Acontrol is the absorbance of the control and Asample is the absorbance of the sample. The IC50, which is the concentration of the sample required to inhibit 50% of the enzyme was determined for each sample.

[2] = tested on: Candida albicans (ATCC 10231); experiment: Antifungal microdilution bioassay (MIC); format: cell-based
Protocol: The antifungal activity of the crude methanol extract, fractions and isolated compounds were evaluated against Candida albicans (ATCC 10231) using the micro-dilution assay, modified for an antifungal assay. An overnight fungal culture was prepared in 10 mL yeast malt (YM) broth. Four hundred microliters of the overnight Candida culture were added to 4 mL of sterile saline solution. The absorbance was read at 530 nm and adjusted with sterile saline solution to match that of a […] McFarland standard solution. From this prepared stock, a 1:1000 dilution with sterile YM broth was prepared to give an approximately 10^6 cfu/mL culture. One hundred microlitres of the resuspended (in 70% aqueous acetone) crude extract, fractions (50 mg/mL) or compounds (1 mg/mL) were two-fold serially diluted with sterile distilled water, in duplicate down a 96-well microtitre plate. A similar 2-fold serial dilution of amphotericin B (Sigma, 2.5 mg/mL) was used as a positive control. Water, 70% aqueous acetone and fungal free broth were included as negative/solvent controls. The screening was done in triplicate and repeated twice for each extract, the MIC and MFC values were recorded.

[3] = molecular target: T2, AChE (isolated from electric eels) (Electrophorus electricus, UniProt O42275); experiment: biochemical
T2 construct: AChE (isolated from electric eels) (type VI-S lyophilized powder); purchased Sigma-Aldrich type VI-S lyophilized powder; host or cells: isolated from electric eels
T2 sequence (O42275 24-633): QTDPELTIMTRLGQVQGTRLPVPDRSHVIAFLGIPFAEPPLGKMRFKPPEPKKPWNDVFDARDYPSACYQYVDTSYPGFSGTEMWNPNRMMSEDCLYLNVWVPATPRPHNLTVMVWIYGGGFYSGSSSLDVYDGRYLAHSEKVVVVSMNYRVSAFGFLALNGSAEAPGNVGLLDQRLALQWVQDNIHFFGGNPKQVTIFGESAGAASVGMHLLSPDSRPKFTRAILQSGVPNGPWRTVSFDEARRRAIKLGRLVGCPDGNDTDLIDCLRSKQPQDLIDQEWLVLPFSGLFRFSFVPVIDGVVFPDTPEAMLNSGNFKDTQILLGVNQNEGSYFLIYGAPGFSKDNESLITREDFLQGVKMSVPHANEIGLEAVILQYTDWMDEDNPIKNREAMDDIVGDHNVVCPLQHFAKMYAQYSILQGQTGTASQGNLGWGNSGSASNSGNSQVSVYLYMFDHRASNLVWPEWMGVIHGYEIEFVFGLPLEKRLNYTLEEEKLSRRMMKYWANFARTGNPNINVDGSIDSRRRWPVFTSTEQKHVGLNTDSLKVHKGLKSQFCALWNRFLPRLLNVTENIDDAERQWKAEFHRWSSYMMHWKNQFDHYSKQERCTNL
Protocol: Inhibition of AChE by the crude methanol extract, fractions and isolated compounds was done as described by Ellman et al. with some modifications. The acetylcholinesterase enzyme activity was measured by spectrophotometric observation of the increase in a yellow colour produced from thiocholine when it reacts with the dithiobisnitrobenzoate ion. AChE (isolated from electric eels) (type VI-S lyophilized powder) was obtained from Sigma-Aldrich. The assay was carried out in a 96-well microtitre plate. The crude methanol extract, fractions and isolated compounds were at initial concentrations of 10 mg/mL (crude extract and fractions) and 1 mg/mL (pure compounds). The increase in absorbance due to the spontaneous hydrolysis of the substrate was corrected by subtracting the ratio of reaction before adding the enzyme from the rate after adding the enzyme (0.2 U/mL). Percentage of inhibition was calculated by comparing the reaction rates for the sample to the negative control. […] The IC50 values of extracts and compounds were calculated using Graph Pad Prism (version 5.0) statistical software programme for Windows (GraphPad Software Inc.).

[4] = tested on: Bacillus subtilis ATCC 6051; experiment: Antibacterial microdilution bioassay (MIC); format: cell-based; settings: for Antimicrobial MIC B.s.: n = 3
Protocol: (§1) Minimum inhibitory concentration (MIC) values for antibacterial activity of the crude methanol extract, fractions and isolated compounds were determined using the microdilution bioassay in a 96-well (Greiner Bio-one GmbH, Frickenhausen, Germany) microtitre plates. One hundred microlitres of the resuspended (in 70% aqueous acetone) crude extract, fractions (50 mg/mL) or compounds (1 mg/mL) was two-fold serially diluted with sterile distilled water, in duplicate down the microtitre plate for each of the four bacteria used. A similar two-fold serial dilution of neomycin (Sigma) (0.1 mg/mL) was used as a positive control against each bacterium. Water and 70% aqueous acetone were included as a negative/solvent controls. The screening was done in triplicate and repeated twice for each extract.

[5] = tested on: Klebsiella pneumoniae ATCC 13883; experiment: Antibacterial microdilution bioassay (MIC); format: cell-based; settings: for MIC: Klebsiella pneumoniae
Protocol: as §1

[6] = tested on: Escherichia coli ATCC 11775; experiment: Antibacterial microdilution bioassay (MIC); format: cell-based; settings: for Antimicrobial MIC E.c.: n = 3
Protocol: as §1

[7] = tested on: Staphylococcus aureus ATCC 12600; experiment: Antibacterial microdilution bioassay (MIC); format: cell-based; settings: for Antimicrobial MIC S.a.: n = 3
Protocol: as §1

[8] = molecular target: T3, human recombinant COX-2 enzyme (Homo sapiens, UniProt P35354); experiment: Cyclooxygenase (COX-2) inhibitory bioassay; format: biochemical; settings: read-out: COX-2 inhibitory activity level
T3 construct: His6 (N); purchased Sigma-Aldrich; host or cells: Baculovirus overexpression system in Sf 21 cells
T3 sequence (P35354 18-604): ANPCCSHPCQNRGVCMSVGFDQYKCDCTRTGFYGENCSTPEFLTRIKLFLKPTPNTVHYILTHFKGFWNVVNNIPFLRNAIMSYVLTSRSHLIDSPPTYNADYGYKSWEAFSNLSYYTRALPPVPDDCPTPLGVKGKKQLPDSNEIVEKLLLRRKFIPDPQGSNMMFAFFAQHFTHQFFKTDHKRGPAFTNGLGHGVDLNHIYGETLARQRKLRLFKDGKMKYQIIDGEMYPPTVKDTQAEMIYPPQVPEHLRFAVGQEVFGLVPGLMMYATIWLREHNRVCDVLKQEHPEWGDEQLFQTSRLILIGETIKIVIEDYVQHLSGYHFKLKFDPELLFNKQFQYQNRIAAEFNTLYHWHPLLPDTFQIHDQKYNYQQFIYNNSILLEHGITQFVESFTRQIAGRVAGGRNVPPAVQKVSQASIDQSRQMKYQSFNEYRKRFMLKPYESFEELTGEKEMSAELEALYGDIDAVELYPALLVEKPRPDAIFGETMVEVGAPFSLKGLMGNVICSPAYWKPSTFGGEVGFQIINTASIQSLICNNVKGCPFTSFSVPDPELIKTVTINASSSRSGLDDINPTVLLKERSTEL

[9] = read-out: α-Glucosidase inhibitory activity Percentage inhibition
[10] = ATCC10231, read-out: Antimicrobial MIC C.a.
[11] = pure compounds at 300 µg/mL, mean ± standard error, read-out: AChE inhibitory activity Percentage inhibition
[12] = ATCC6051, n = 3, read-out: Antimicrobial MIC B.s.
[13] = ATCC13883, Klebsiella pneumonia, n = 3, read-out: Antimicrobial MIC K.p.
[14] = ATCC11775, n = 3, read-out: Antimicrobial MIC E.c.
[15] = ATCC12600, n = 3, read-out: Antimicrobial MIC S.a.
[16] = ATCC10231, n = 3, read-out: Antimicrobial MIC C.a.
[17] = pure compounds at 300 µg/mL, mean ± standard error

T1 sequence (P53341 whole entry): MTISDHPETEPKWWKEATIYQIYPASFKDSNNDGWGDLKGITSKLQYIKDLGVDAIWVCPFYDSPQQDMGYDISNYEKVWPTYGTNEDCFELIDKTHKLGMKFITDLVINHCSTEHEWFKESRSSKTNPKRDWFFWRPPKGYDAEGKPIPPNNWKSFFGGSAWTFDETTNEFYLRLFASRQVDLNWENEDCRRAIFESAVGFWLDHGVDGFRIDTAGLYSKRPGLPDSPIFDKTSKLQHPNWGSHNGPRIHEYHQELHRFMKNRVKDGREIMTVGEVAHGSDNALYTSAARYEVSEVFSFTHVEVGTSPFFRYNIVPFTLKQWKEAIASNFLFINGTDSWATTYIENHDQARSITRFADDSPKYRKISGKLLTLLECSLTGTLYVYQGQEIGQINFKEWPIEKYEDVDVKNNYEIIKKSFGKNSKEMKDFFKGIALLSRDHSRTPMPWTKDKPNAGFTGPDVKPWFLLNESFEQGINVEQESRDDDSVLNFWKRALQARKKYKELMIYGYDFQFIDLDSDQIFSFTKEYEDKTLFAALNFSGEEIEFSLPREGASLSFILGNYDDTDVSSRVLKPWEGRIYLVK

Question: Which inhibition at 250 µg/mL [1, 9] does the source give for `C[C@H]1O[C@H](O[C@H]2[C@H](O)[C@@H](O)[C@@H](O[C@H]3[C@H](O)[C@@H](O)C(O)O[C@@H]3CO)O[C@@H]2CO)[C@H](O)[C@@H](O)[C@@H]1N[C@H]1C=C(CO)[C@@H](O)[C@H](O)[C@H]1O` (stereo partly shown) [Acarbose, acarbose, reference compound] here?
Answer: 83.6 ± 2.6%

Question: How did the MIC [2, 10] turn out when `C[C@@H]1[C@H](O)[C@@H](C)/C=C/C=C/C=C/C=C/C=C/C=C/C=C/[C@H](O[C@@H]2O[C@H](C)[C@@H](O)[C@H](N)[C@@H]2O)C[C@@H]2O[C@](O)(C[C@@H](O)C[C@@H](O)[C@H](O)CC[C@@H](O)C[C@@H](O)CC(=O)O[C@H]1C)C[C@H](O)[C@H]2C(=O)O` [Amphotericin B, amphotericin B, reference compound] was run?
Answer: 9.77 µg/mL (≈ 10.6 µM)

Question: Which results are given for `CC1OC(Oc2c(-c3cc(O)c(O)c(O)c3)oc3cc(O)cc(O)c3c2=O)C(O)C(O)C1O` (stereo not shown) [Myricetrin-3-O-rhamnoside (1), Myricetrin-3-O-rhamnoside]?
Answer: IC50 [3]: 140 µM; inhibition at 300 µg/mL ([3]; read-out: AChE inhibitory activity Percentage inhibition): 54.3 ± 1.1%; IC50 [1]: 170 µM; inhibition at 300 µg/mL [1, 9]: 89.1 ± 5.3%; MIC ([4]; ATCC6051, read-out: Antimicrobial MIC B.s.): 250 µg/mL (≈ 538 µM); MIC ([5]; ATCC13883, read-out: Antimicrobial MIC K.p.): 250 µg/mL (≈ 538 µM); MIC ([6]; ATCC11775, read-out: Antimicrobial MIC E.c.): 250 µg/mL (≈ 538 µM); MIC ([7]; ATCC12600, read-out: Antimicrobial MIC S.a.): 250 µg/mL (≈ 538 µM); MIC [2, 10]: 250 µg/mL (≈ 538 µM); inhibition at 25 µg/mL [8]: < 20%

Question: How did the inhibition at 300 µg/mL [3, 11] turn out when `O=c1c(O)c(-c2ccc(O)c(O)c2)oc2cc(O)cc(O)c12` [Quercetin (3), 3,3', 4',5,7-pentahydroxyflavone] was run?
Answer: 56.6 ± 0.3%

Question: What about the inhibition at 300 µg/mL [1, 9] of the same molecule?
Answer: 67.1 ± 4.2%

Question: What about the MIC [4, 12] of the same molecule?
Answer: 30 µg/mL (≈ 99.3 µM)

Question: What about the MIC [5, 13] of the same molecule?
Answer: 250 µg/mL (≈ 827 µM)

Question: And the MIC [6, 14]?
Answer: > 250 µg/mL

Question: And the MIC [7, 15]?
Answer: > 250 µg/mL

Question: What about the MIC [2, 16] of the same molecule?
Answer: 20 µg/mL (≈ 66.2 µM)

Question: Which IC50 ([3]; mean ± standard error, read-out: AChE inhibitory activity IC50 (converted)) does the source give for `O=C(/C=C/c1ccc(O)cc1)NCCc1c[nH]c2ccc(O)cc12` [Trans-N-(p-coumaroyl) serotonin (4), (E)-N-(4-hydroxycinnamoyl)-5-hydroxytryptamine] here?
Answer: 46.5 µM

Question: And the inhibition at 300 µg/mL [3, 11]?
Answer: 72.6 ± 4.9%

Question: What about the inhibition at 300 µg/mL ([3]; pure compounds at 300 µg/mL, read-out: AChE inhibitory activity level) of the same molecule?
Answer: 70 to 100%

Question: What about the IC50 [1] of the same molecule?
Answer: 16.4 µM

Question: And the inhibition at 300 µg/mL [1, 9]?
Answer: 97.3 ± 3.2%

Question: And the MIC [4, 12]?
Answer: 250 µg/mL (≈ 776 µM)

Question: What about the MIC [5, 13] of the same molecule?
Answer: 250 µg/mL (≈ 776 µM)

Question: What about the MIC [6, 14] of the same molecule?
Answer: 250 µg/mL (≈ 776 µM)

Question: And the MIC [7, 15]?
Answer: 250 µg/mL (≈ 776 µM)

Question: And the MIC [2, 16]?
Answer: 130 µg/mL (≈ 403 µM)

Question: Which results are given for “Quercetin-3-O-rhamnoside [Quercetin-3-O-rhamnoside (2)]”?
Answer: AChE inhibitory activity Percentage inhibition [3, 17]: 53.3 ± 1.0 b,c; α-Glucosidase inhibitory activity Percentage inhibition [1, 17]: 47.0 ± 1.7 a; Antimicrobial MIC B.s. [4]: 130 µg/mL; Antimicrobial MIC K.p. ([5]; Klebsiella pneumonia, n = 3): >250 µg/mL; Antimicrobial MIC E.c. [6]: >250 µg/mL; Antimicrobial MIC S.a. [7]: >250 µg/mL; Antimicrobial MIC C.a. ([2]; n = 3): 250 µg/mL

Question: How did the “Antimicrobial MIC B.s.” value [4] turn out when neomycin [reference compound] was run?
Answer: 1.6 µg/mL

Question: What about the “Antimicrobial MIC K.p.” value ([5]; Klebsiella pneumonia, n = 3) of the same molecule?
Answer: 0.8 µg/mL

Question: And the “Antimicrobial MIC E.c.” value [6]?
Answer: 0.8 µg/mL

Question: And the “Antimicrobial MIC S.a.” value [7]?
Answer: 1.6 µg/mL
